From US8604218B2, “Cytoskeletal active rho kinase inhibitor compounds, composition and use” (Inspire Pharmaceuticals, Inc., priority 2006, dated 2013) come the findings set out here.

In test [1] the target is ROCK2 (Homo sapiens (Human), UniProt O75116). In words: Rho Kinase Inhibition Assay (IMAP fluorescence polarization). It counts as biochemical. The settings on record: isolated enzyme, 10 μM ATP, 60 minutes at room temperature. In general terms: Fluorescence polarisation rises when a labelled molecule tumbles more slowly, as on binding a larger partner.
Test [2] relates to NIH/3T3 cells. Kind of test: NIH/3T3 Cell Morphology Assay (actin disruption). Type of test: cell-based. To be noted: 1 μM test compound, 60 minutes at 37° C.; score of actin cytoskeleton disruption from 0 (no effect) to 4 (complete disruption), average of at least 2 determinations. The protocol: NIH/3T3 cells were grown in DMEM-H containing glutamine and 10% Colorado Calf Serum. Cells were passaged regularly prior to reaching confluence. Eighteen to 24 hours prior to experimentation, the cells were plated onto Poly-L-Lysine-coated glass bottom 24-well plates. On the day of experimentation, the cell culture medium was removed and was replaced with the same medium containing from 10 nM to 25 μM of the test compound, and the cells were incubated for 60 minutes at 37° C. The culture medium was then removed and the cells were washed with warmed PBS and fixed for 10 minutes with warmed 4% paraformaldehyde. The cells were permeabilized with 0.5% Triton-X, stained with TRITC-conjugated phalloidin and imaged using a Nikon Eclipse E600 epifluorescent microscope to determine the degree of actin disruption. Results were expressed as a numerical score indicating the observed degree of disruption of the actin cytoskeleton at the test concentration, ranging from 0 (no effect) to 4 (complete disruption), and were the average of at least 2 determinations.
All compounds tested show measurable activity in the cell morphology assay, with most of the compounds providing substantial effects on the actin cytoskeleton at the testing concentration (score of 2 at 1 μM). […] These morphology changes are thought to provide the basis for the beneficial pharmacological effects sought in the setting of the disease processes described in this application, specifically the lowering of elevated IOP in hypertensive eyes via increased outflow through the trabecular meshwork.

Sequence of ROCK2 (O75116 11-552): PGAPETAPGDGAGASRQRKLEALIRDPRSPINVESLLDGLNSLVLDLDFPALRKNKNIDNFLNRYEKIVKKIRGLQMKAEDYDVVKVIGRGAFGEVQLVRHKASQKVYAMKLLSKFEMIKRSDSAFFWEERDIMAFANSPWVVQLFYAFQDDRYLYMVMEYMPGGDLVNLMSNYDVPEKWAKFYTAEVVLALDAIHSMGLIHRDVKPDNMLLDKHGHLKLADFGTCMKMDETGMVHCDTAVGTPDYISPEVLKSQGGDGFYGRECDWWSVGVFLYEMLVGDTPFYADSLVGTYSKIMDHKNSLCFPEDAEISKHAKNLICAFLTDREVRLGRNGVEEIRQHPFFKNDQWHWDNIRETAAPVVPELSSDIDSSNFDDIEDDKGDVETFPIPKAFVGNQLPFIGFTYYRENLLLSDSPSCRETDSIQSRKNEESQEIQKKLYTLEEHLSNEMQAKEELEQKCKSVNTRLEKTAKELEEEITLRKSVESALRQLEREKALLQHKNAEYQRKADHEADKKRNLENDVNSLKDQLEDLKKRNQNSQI

Consider `CSc1ccc(CN2CC[C@@H](Nc3cccc4cnccc34)C2)cc1` [Compound 2.026, (R)-N-(1-(4-(methylthio)benzyl)pyrrolidin-3-yl)isoquinolin-5-amine], for which the IC50 (usually the point on the concentration scale where inhibition reaches its midpoint) in test [1] was 6330 nM. Also, the “Cell score at 1 μM” value in test [2] was found to be 2. On to `CS(=O)(=O)c1ccc(CN2CCCC(Nc3cccc4cnccc34)C2)cc1` (stereo not shown) [Compound 2.002, N-(1-(4-(methylsulfonyl)benzyl)piperidin-3-yl)isoquinolin-5-amine], for which the IC50 in test [1] stood at 2580 nM. In test [2], the “Cell score at 1 μM” value was determined as 1.8. In the same order, the values of `N#Cc1cccc(CN2CCC(Nc3ccc4[nH]ncc4c3)C2)c1` (stereo not shown) [Compound 1.005, 3-((3-(1H-indazol-5-ylamino)pyrrolidin-1-yl)methyl)benzonitrile] are 2290 nM and 1.3.

`CC(=O)Nc1ccc(CN2CCC(Nc3ccc4[nH]ncc4c3)C2)cc1` (stereo not shown) [Compound 1.006, N-(4-((3-(1H-indazol-5-ylamino)pyrrolidin-1-yl)methyl)phenyl)acetamide]: the IC50 in test [1] amounted to 2750 nM. The “Cell score at 1 μM” value in test [2] is 2.

Molecule `N#Cc1cccc(CN2CCCC(Nc3ccc4[nH]ncc4c3)C2)c1` (stereo not shown) [Compound 1.002, 3-((3-(1H-indazol-5-ylamino)piperidin-1-yl)methyl)benzonitrile] came in with a half-maximal inhibitory concentration (IC50) in test [1] of 1230 nM. For the same molecule, the “Cell score at 1 μM” value in test [2] turned out to be 1.4. Turning to `CC(=O)Nc1ccc(CN2CCC(Nc3cccc4cnccc34)C2)cc1` (stereo not shown) [Compound 2.008, N-(4-((3-(isoquinolin-5-ylamino)pyrrolidin-1-yl)methyl)phenyl)acetamide], in test [1], the IC50 stood at 3650 nM. Besides, the “Cell score at 1 μM” value in test [2] turned out to be 1. In test [1], `OCCN1CCc2ccc(CN3CCCC(Nc4ccc5[nH]ncc5c4)C3)cc21` (stereo not shown) [Compound 1.104, 2-(6-((3-(1H-indazol-5-ylamino)piperidin-1-yl)methyl)indolin-1-yl)ethanol] gave an IC50 of 107 nM.
